Source: patent US9557338B2 (SIGNAL PHARMACEUTICALS, LLC, priority 2012, dated 2017)
Where two headings read alike, the source gives them in different places.

Legend:
Assay type in all cases: cell-based
[1] = tested on: A549; test: Growth inhibition (cell proliferation assay), A549; conditions: read-out: Compound 1 Growth Inhibition IC50
[2] = tested on: Phospho-4E-BP1(T46); test: Luminex multiplex assay, Phospho-4E-BP1(T46); conditions: read-out: p-4E-BP1(T46)
Source text: Determination of Phospho-GSK3β(S9), Phospho-PRAS40(T246) and Phospho-4E-BP1(T46) and the Effect of Compound 1 or Rapamycin.
The multiplex Luminex assay format differs from conventional enzyme-linked immunosorbent assay (ELISA) in that the multiplex capture antibody is attached to a polystyrene bead whereas the ELISA capture antibody is attached to the microplate well. The use of the suspension bead-based technology enables the multiplexing capabilities of the Luminex assays. The xMAP® technology uses 5.6 micron polystyrene microspheres, which are internally dyed with red and infrared fluorophores of differing intensities. Each bead is given a unique number, or bead region, allowing differentiation of one bead from another. Beads covalently bound to different specific antibodies can be mixed in the same assay, utilizing a 96-well microplate format. At the completion of the sandwich immunoassay, beads can be read, using the Luminex 100™ or Luminex 200 detection system, in single-file by dual lasers for classification and quantification of each analyte. The Akt-Pathway Phospho 5-plex kit used was custom made and includes the ability to simultaneously measure p-GSK3β (S9), p-PRAS40(T246), and p-4E-BP1(T46).
Cells were plated at the required density. The cells were treated with either Compound 1 or rapamycin over a range of concentrations for 1 hour in 5% CO2 at 37° C. Compound 1 and rapamycin were used at the same concentrations as for the proliferation assay. As for the cell proliferation assay, a reference standard was included in the assay for PC3 cells and the coefficient of variation for assay of p-GSK3β(S9) was 37.8% (n=30), p-PRAS40(T246) was 27.8% (n=30) and for p4E-BP1(T46) was 13.5% (n=4). For three cell lines (HCT-116, MDA-MB-231 and HT29) in the assay for phosphorylation of GSK3β, PRAS40 and 4E-BP1, IGF-I stimulation (500 ng/mL, recombinant human IGF-I) for the last 10 min of incubation was used. The media was aspirated from the wells and the plate was placed on ice. Then 35 μL of Lysis Buffer was added to each well and incubated on ice for at least 30 minutes. During the incubation, the standard curve for each phosphoprotein was prepared. The standards provided were reconstituted and serial dilutions were prepared according to the manufacturer's instructions. At the end of the cell lysis step, […] of the lysate was transferred to a V-bottom plate and spun at 4° C. at 2000 rpm for 5 minutes. Both the 1× Luminex bead and 1× detector antibody solutions were prepared during this time. The 1× bead solution was vortexed and 25 μL was added into each well of a black round bottom plate. Then 50 μL of the 1× detector antibody was added to each well. Fifty microliters (50 μL) of the prepared standards were added to the designated wells. Then 25 μL of the assay diluent was added to each well designated for the compound-treated cell lysates. At the end of the spin, 25 μL of cell lysate was added to the corresponding wells of the black assay plate. The assay plate was covered with the white plate lid and incubated for 3 hours at room temperature on an orbital shaker.
Approximately 10-15 minutes prior to the end of the first incubation, the secondary antibody solution was prepared according to the vendor's protocol. Goat anti-rabbit R-phycoerythrin red fluorescent protein (RPE) supplied as a 10× concentrate was diluted to generate a 1× goat anti-rabbit RPE stock. The 96-well filter plate was pre-wet with 200 μL of 1× Working wash solution. At the end of the 3 hour incubation, a multichannel pipette was used to transfer the entire contents from each assay well into the wells of the filter plate. The liquid from the wells was removed by aspiration with the vacuum manifold. Then 200 μL of 1× Working wash solution was added into each well. The wash solution was aspirated using the vacuum manifold after 15-30 seconds. This wash step was repeated one time. The bottom of the plate was blotted on clean paper towels to remove residual liquid. […]

[3] = target: T1, mTORC1 (Homo sapiens, UniProt P42345); test: Inhibition of mTORC1 measured by phosphorylation of pathway markers (FIG. 1); conditions: phosphorylation of pathway markers Akt, PRAS40, GSK-3β, p70S6, S6, 4-EBP1
T1 construct: endogenous in cells; host or cells: PC3, A549, HCT116, U-87 MG, MDA-MB-231, NCI-H23, HT-29
Source text: The activity of the TORC1 complex can be followed from the phosphorylation status of 4E-BP1(T46), a direct substrate of mTOR kinase and S6RP(S235/S236), a downstream substrate from mTOR. The activity of the TORC2 complex can be followed directly from the phosphorylation status of Akt(S473) and indirectly from the phosphorylation status of AKT substrates, GSK3β(S9) and PRAS40(T246). […] Full activation of Akt requires an additional phosphorylation on T308 that is done by PDK1 and is speculated to be co-dependent with the TORC2 phosphorylation of the Akt(S473).

[4] = tested on: NCI-H23; test: Growth inhibition (cell proliferation assay), NCI-H23; conditions: read-out: Compound 1 Growth Inhibition IC50
[5] = tested on: PC3; test: Growth inhibition (cell proliferation assay), PC3; conditions: read-out: Compound 1 Growth Inhibition IC50
[6] = tested on: Akt(T308); test: Inhibition of Akt(T308) phosphorylation in cell lines; conditions: read-out: p-Akt(T308)
[7] = tested on: U-87 MG; test: Growth inhibition (cell proliferation assay), U-87 MG; conditions: read-out: Compound 1 Growth Inhibition IC50

Compound: CO[C@H]1CC[C@H](N2C(=O)CNc3ncc(-c4ccc(C(C)(C)O)nc4)nc32)CC1 [Compound 1, 7-(6-(2-hydroxypropan-2-yl)pyridin-3-yl)-1-((1r,4r)-4-methoxycyclohexyl)-3,4-dihydropyrazino-[2,3-b]pyrazin-2(1H)-one]
- IC50 [1]: 0.32 µM
- IC50 ([2]; A549): 0.33 µM
- IC50 ([2]; HCT116, IGF-I stimulation): 0.39 µM
- IC50 ([2]; HT-29, IGF-I stimulation): 0.07 µM
- IC50 ([2]; MDA-MB-231, IGF-I stimulation): 0.12 µM
- IC50 ([2]; NCI-H23): 0.12 µM
- IC50 ([2]; PC3): 0.41 µM
- IC50 ([2]; U-87 MG): 1.34 µM
- inhibition of mTORC1 [3]: inhibition
- IC50 [4]: 3.71 µM
- IC50 [5]: 0.11 µM
- IC50 ([6]; A549): 0.64 µM
- IC50 ([6]; HCT116): 1.95 µM
- IC50 ([6]; HT-29): 0.24 µM
- IC50 ([6]; PC3): 0.13 µM
- IC50 ([6]; U-87 MG): 0.26 µM
- IC50 [7]: 0.79 µM
